Results reported in ChEMBL document CHEMBL3232739, “Discovery of a potent and dissociated non-steroidal glucocorticoid receptor agonist containing an alkyl carbinol pharmacophore” (Bioorg Med Chem Lett, 2014).

Key:
[1] = system: Mus musculus; test: Toxicity in po dosed B10.RIII mouse assessed as triglyceride level in serum administered po qd for 5 weeks relative to control; format: organism-based; settings: in vivo, 840 h
[2] = system: Mus musculus; test: Toxicity in po dosed B10.RIII mouse assessed as insulin level in serum administered po qd for 5 weeks relative to control; format: organism-based; settings: in vivo, 840 h
[3] = target: T1, Progesterone receptor (Homo sapiens, UniProt P06401); test: Displacement of TAMRA-labeled mifepristone from progesterone receptor (unknown origin) by fluorescence polarization assay
T1 sequence (P06401 whole entry): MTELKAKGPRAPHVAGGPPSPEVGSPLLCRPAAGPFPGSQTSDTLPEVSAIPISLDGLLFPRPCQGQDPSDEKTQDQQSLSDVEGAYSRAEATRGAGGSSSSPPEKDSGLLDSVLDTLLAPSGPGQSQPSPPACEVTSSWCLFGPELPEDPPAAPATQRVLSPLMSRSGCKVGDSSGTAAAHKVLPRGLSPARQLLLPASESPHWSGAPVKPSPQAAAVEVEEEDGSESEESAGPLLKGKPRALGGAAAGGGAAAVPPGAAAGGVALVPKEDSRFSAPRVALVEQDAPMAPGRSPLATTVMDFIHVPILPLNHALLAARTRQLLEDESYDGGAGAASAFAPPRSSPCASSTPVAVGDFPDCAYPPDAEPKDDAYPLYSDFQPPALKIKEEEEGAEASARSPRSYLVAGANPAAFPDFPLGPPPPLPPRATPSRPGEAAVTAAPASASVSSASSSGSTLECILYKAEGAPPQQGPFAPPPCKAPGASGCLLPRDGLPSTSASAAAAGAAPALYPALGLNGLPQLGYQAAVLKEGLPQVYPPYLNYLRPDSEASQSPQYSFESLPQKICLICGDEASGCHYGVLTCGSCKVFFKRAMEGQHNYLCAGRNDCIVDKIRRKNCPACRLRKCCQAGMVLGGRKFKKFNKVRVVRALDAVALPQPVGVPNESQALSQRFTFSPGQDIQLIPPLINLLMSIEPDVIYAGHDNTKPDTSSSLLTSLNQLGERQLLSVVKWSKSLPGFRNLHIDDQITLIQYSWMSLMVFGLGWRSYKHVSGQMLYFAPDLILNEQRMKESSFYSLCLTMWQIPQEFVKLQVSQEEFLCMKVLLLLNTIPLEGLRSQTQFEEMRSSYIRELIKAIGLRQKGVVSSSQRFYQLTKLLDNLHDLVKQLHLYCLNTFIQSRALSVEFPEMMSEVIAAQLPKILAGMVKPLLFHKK

[4] = species on record: Homo sapiens; test: Selectivity ratio of IC50 for mineralocorticoid receptor (unknown origin) to IC50 for glucocorticoid receptor (unknown origin)
[5] = Clearance in Sprague-Dawley rat at 2 mg/kg, iv; format: ADME, organism-based; parameters: dose 2 mg/kg, route intravenous; settings: in vivo
[6] = Volume of distribution at steady state in Sprague-Dawley rat at 2 mg/kg, iv; format: ADME, organism-based; parameters: dose 2 mg/kg, route intravenous; settings: in vivo, read-out: Vdss
[7] = Cmax in Sprague-Dawley rat at 30 mg/kg, po; format: ADME, organism-based; parameters: dose 30 mg/kg, route oral; settings: in vivo
[8] = AUC (infinity) in Sprague-Dawley rat at 30 mg/kg, po; format: ADME, organism-based; parameters: time infinity, dose 30 mg/kg, route oral; settings: plasma
[9] = Oral bioavailability in Sprague-Dawley rat at 30 mg/kg; format: ADME, organism-based; settings: in vivo
[10] = system: Mus musculus; test: Antiarthritic activity in B10.RIII mouse collagen/complete Freund's adjuvant-induced arthritis model assessed as reduction of disease score at 30 mg/kg, po qd for 5 weeks relative to control; format: functional; parameters: scale not given: the % may be the effect or the level left
[11] = system: Mus musculus; test: Toxicity in B10.RIII mouse assessed as body fate level in serum at 30 mg/kg, po qd for 5 weeks relative to control; format: organism-based; parameters: dose 30 mg/kg, route oral; settings: in vivo, 840 h
[12] = system: Mus musculus; test: Toxicity in B10.RIII mouse assessed as triglyceride level in serum at 100 mg/kg, po qd for 5 weeks relative to control; format: organism-based; parameters: dose 100 mg/kg, route oral; settings: in vivo, 840 h
[13] = system: Mus musculus; test: Toxicity in B10.RIII mouse assessed as free fatty acid level in serum at 30 mg/kg, po qd for 5 weeks relative to control; format: organism-based; parameters: dose 30 mg/kg, route oral; settings: in vivo, 840 h
[14] = system: Mus musculus; test: Toxicity in B10.RIII mouse assessed as insulin level in serum at 30 mg/kg, po qd for 5 weeks relative to control; format: organism-based; parameters: dose 30 mg/kg, route oral; settings: in vivo, 840 h
[15] = target: T2, Glucocorticoid receptor (Homo sapiens, UniProt P04150)
T2 sequence (P04150 whole entry): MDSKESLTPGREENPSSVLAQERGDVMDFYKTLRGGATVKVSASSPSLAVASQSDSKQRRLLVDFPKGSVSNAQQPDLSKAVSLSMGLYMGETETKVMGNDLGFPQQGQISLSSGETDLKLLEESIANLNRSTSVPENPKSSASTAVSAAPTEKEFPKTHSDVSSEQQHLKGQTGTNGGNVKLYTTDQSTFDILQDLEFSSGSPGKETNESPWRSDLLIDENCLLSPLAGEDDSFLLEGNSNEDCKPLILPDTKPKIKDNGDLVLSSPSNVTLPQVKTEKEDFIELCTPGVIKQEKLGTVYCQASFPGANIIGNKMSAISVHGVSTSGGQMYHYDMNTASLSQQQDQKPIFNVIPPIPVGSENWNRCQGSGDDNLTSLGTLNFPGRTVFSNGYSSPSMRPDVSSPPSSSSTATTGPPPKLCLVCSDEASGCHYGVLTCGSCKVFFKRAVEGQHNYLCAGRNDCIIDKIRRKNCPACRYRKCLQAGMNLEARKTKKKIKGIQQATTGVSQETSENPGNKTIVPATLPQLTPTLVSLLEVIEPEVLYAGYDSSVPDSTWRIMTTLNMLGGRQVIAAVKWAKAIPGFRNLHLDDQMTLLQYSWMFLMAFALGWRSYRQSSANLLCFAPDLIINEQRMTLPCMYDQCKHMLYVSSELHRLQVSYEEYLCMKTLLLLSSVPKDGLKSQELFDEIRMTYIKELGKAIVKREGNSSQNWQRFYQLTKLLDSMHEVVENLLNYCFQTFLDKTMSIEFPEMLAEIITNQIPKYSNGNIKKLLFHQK
Description: Transactivation of glucocorticoid receptor in human HeLa cells harboring MMTV promoter by luciferase reporter gene assay

- IC50 [3]: 290 nM
- Ratio IC50 [4]: > 100
- clearance [5]: 48 mL/min/kg
- Vd [6]: 4 L/kg
- Cmax [7]: 708 ng/mL
- AUC(0-inf) [8]: 6730 ng·h/mL
- bioavailability [9]: 64%
- IC50 [15]: > 2000 nM
Structure (SMILES): Cc1ccc(F)cc1C(C)(C)C[C@@](O)(Cc1cc2cnccc2[nH]1)C(C)(C)C
- Activity [1]: Dose-dependent effect
- Activity [2]: Dose-dependent effect
- Activity [10]: -51%
- Activity [11]: -7%
- Activity [12]: 113%
- Activity [13]: 25%
- Activity [14]: 60%
